# Laboratory results published in US12264163B2, “Compounds and methods for treating fibrotic pathologies” (Mayo Foundation for Medical Education and Research, priority 2019, dated 2025).
# What was measured:
# CTGF, COL1A1, ACTA2, FN1 = test: Profibrotic / matrix remodeling gene expression by qPCR in fibroblasts; format: cell-based, human
# Protocol: Genes which encode Connective tissue growth factor (CTGF), Collagen I (COL1A1), αSMA (ACTA2), and Fibronectin (FN1) are reduced by 24 hour treatment with DHX (10 μM), +/−SCH 39166 (3 μM). N=3 (****p<0.0001, ***p<0.001, *p<0.05 vs. 0.1% DMSO vehicle control)
# IPF patient-derived fibroblasts cultured in media containing 0.1% FBS were stimulated for 24 hours with 2 ng/mL TGFβ and 10 μM DHX prior to RNA isolation. Genes which encode for ECM crosslinking: transglutaminase 2 (TGM2), lysyl oxidase and lysyl oxidase-like enzymes (LOX and LOXL1-4), ECM degradation: uPA (PLAU), tPa (PLAT), cathepsin K (CTSK), and matrix metalloprotease-14 (MMP14) and ECM protease inhibitors: metalloprotease inhibitor 3 (TIMP3), and plasminogen activator inhibitor 1 (SERPINE1) were measured. N=3. (****p<0.0001, ***p<0.001, **p<0.01, *p<0.05 vs. 0.1% DMSO vehicle control non-TGFβ treated), (++++p<0.0001, ++p<0.01, +p<0.05 vs. 0.10% DMSO vehicle control TGFβ treated).
# For all other in vitro experiments, cells were treated as indicated prior to RNA isolation using RNeasy Plus Mini Kit (Qiagen) according to manufacturer's instructions. Isolated RNA (250 ng) was then used to synthesize cDNA using SuperScript VILO (Invitrogen). Quantitative PCR was performed using FastStart Essential DNA Green Master (Roche) and analyzed using a LightCycler 96 (Roche). Data are expressed as a fold change by ΔΔCt relative to GAPDH. For in vivo experiments, tissue was immediately frozen, and stored at −80° C. RNA isolation, cDNA synthesis, and qPCR analysis were performed as above.
# [1] = system: bile duct ligation (BDL)-mediated fibrosis; test: Bile duct ligation model of liver fibrosis; format: in vivo, mouse; conditions: BDL mice, DHX 5 mg/kg i.p. daily Day 7 for 14 days
# Protocol: Bile Duct Ligation: BDL was performed as previously described. Briefly, 8-10 weak old female C57BL/6N underwent either BDL or sham surgery. Mice were anesthetized on Day 0 following IACUC protocol, and the bile duct was ligated using sterile 3/0 silk ligatures. Sham surgery was performed by passing a silk ligature under the bile duct. Starting on Day 7, DHX (5 mg/kg) or vehicle control was administered everyday intraperitoneally (i.p.) for 14 days. Following the final DHX treatment, mice were sacrificed and the livers harvested for analysis of fibrosis.
# Histological Scoring: Five μm thick sections were cut from Paraffin embedded lung tissues, and the sections were stained either with hematoxylin and eosin (H&E) or with Masson's Trichrome stain kit (Abcam). […] The severity of interstitial and peribronchiolar lung immature and mature fibrosis was estimated on a numerical scale according to Ashcroft et al. For scoring purposes, all H&E stained slides were systematically scanned at 100× magnification and successive 100× fields were scored. […] The predominant score for each field was recorded. The mean of all scores was calculated for each case. Liver trichrome stained sections were computationally measured using Image J software. […]
# Hydroxyproline: Hydroxyproline content was measured using a hydroxyproline assay kit (Biovision) according to the manufacture's instruction with slight modification. […]
# αSMA = test: TGFβ-induced αSMA+ stress fiber formation in fibroblasts; format: cell-based, human; conditions: TGFβ 72 hours, DHX from 48-72 hours
# Protocol: Media was then exchanged for the indicated conditions for each experiment. Cells were fixed in 3.7% formalin (Sigma-Aldrich), permeabilized in 0.25% Triton X-100 (Sigma-Aldrich) and then blocked with 1% BSA for 1 h. Cells or tissue sections were incubated overnight with mouse monoclonal antibody against αSMA (Sigma-Aldrich F3777), and/or a rabbit monoclonal antibody against YAP/TAZ (Cell Signaling D24E4) diluted 1:200 in PBS with 1% BSA. Cells were then washed and exposed to flourescence-conjugated secondary antibodies (Invitrogen) diluted 1:1000 and DAPI (Thermo Fisher Scientific). Images were taken with a Cytation5 (BioTek) microscope. For scoring αSMA positive cells (FIG. 12), an observer blinded to the treatment conditions counted αSMA-positive cells using a visual threshold for bright fibrous staining; a minimum of 200 cells was counted for each condition. YAP/TAZ localization was quantified (FIGS. 6-10, 24-26, and 29-30) using Gen5 (Biotek) software. Images were taken at 4× magnification of both DAPI and YAP/TAZ staining. […] Quantification of double positive (YAP/TAZ and αSMA) cells from lung tissue sections (FIG. 17-21) was performed similarly; however separate thresholds were established for both YAP/TAZ and αSMA. A minimum of 4000 cells was quantified for each mouse.
smiles,measurement,setting,value
Oc1cc2c(cc1O)[C@H]1c3ccccc3CN[C@@H]1CC2 (racemic) [Dihydrexidine],"expression of matrix crosslinking, protease inhibitor and matrix degradation genes","CTGF, COL1A1, ACTA2, FN1; IPF patient derived fibroblasts, 2 ng/mL TGFβ + 10 μM DHX, 24 hours",reversed the effects of TGFβ
same,"expression of profibrotic genes CTGF, COL1A1, ACTA2, FN1","CTGF, COL1A1, ACTA2, FN1; IPF patient-derived lung fibroblasts, 10 μM, 24 hour",reduced
same,profibrotic gene expression and extracellular matrix accumulation with constitutively active TAZ,"CTGF, COL1A1, ACTA2, FN1; NIH-3T3 cells expressing doxycycline-inducible TAZ4SA",no effect on profibrotic gene expression or extracellular matrix accumulation
same,profibrotic gene expression in human dermal fibroblasts,"CTGF, COL1A1, ACTA2, FN1; human dermal fibroblasts, 24 hours +/− 2 ng/mL TGFβ",blocks profibrotic gene expression
same,collagen deposition (hydroxyproline),[1],trend toward reduced collagen deposition
same,histological fibrosis (trichrome),[1],significantly improved histological fibrosis
same,TGFβ-induced myofibroblastic transition (αSMA+ stress fibers),αSMA,reversed this transition
